We go through one compound from patent US10774080B2, “Pyrimidine compound as JAK kinase inhibitor” (THERAVANCE BIOPHARMA R&D IP, LLC, priority 2017, dated 2020).

Where only a bound is given, the exact number is not on record here.

The conditions of series [1]: Hanford, minipig, in vivo.
Method: Assay 6: Dermal Pharmacokinetics in Hanford Mini-Pig Skin
The objective of this Study was to determine the epidermal, dermal and plasma pharmacokinetics of compound (I) following a 24 hour exposure to intact Hanford mini-pig skin.
Twenty-four hours prior to dosing, the hair was shaved from the back of 10-15 kg Hanford mini-pigs exposing an area of at least 700 cm^2 (about 10% of body surface). At time zero, compound (I) was applied to the back of the mini-pigs at a dose of 25 μL/cm^2. The skin was covered with an adhesive cover to prevent loss of compound to the cage or bedding. Following 24 h exposure, the backs were gently washed with soap and water to remove non-absorbed drug and patted dry. Immediately following this washing, blood was drawn by venipuncture from the mini-pigs. The outer skin (stratum corneum) was then removed by adhesive tape stripping. Upon exposure of the epidermis a 0.5 cm punch biopsy was taken. The epidermis and dermis were quickly separated, weighed and snap frozen. Similar samples were taken at 94 h, and 168 h (7 days) post-dosing in mini-pigs. Epidermis and dermis samples were homogenized in 1:10 (w/v) water using a Covaris ultrasonic homogenizer. Samples were extracted in 3 volumes of acetonitrile and quantified against a standard curve via LC-MS analysis.
In another series the test system is CXCL10 gene expression. Briefly: Assay 7: ex vivo JAK PD assay, freshly excised human skin, CXCL10. The following applies: 0.5% ointment, about 40 hours continuous exposure, Th1-skewed stimulation (TNFα, IFNγ, IL-12), vs vehicle. As to the method: Assay 7: Ex Vivo JAK Pharmacodynamic (PD) Assay Using Human Freshly Excised Skin An ex vivo JAK pharmacodynamics (PD) assay was conducted using human isolated skin tissue. The PD assay used fresh human skin (dermatome of 750 μm thickness) that was mounted in static Franz cells with a surface area of ˜0.5 cm^2. The receiver chambers of the Franz cells were filled with warm (37° C.) cornification media and placed in an incubator at 37° C. The skin was topically dosed with 10 μL ([…]) of compound (I) or vehicle and was left undisturbed overnight (˜24 hours). The next day, with no re-application of the test compound or vehicle, the media was replaced with a Th1-skewed stimulation cocktail consisting of TNFα, IFNγ and IL-12. The skin was left undisturbed for an additional 16 hours, and then harvested and processed for RNA extraction and qPCR of biomarkers: CXCL10, CCL2. GAPDH was used as an internal standard. The compound (I) was formulated in an ointment formulation at 0.5% strength. A total of three skin donors (tested in quadruplicates/sample/treatment) were used. Treatment effect was calculated as the percent increase or decrease in stimulation compared to the vehicle group. [table]

For series [2], the system named is IL-13 stimulated STAT6 phosphorylation in normal human epidermal keratinocytes. Briefly: Assay 13: inhibition of IL-13 stimulated pSTAT6 in normal human epidermal keratinocytes. It counts as cell-based. To be noted: Keratinocyte, read-out: pIC50 for inhibition of IL-13 induced STAT6 phosphorylation (converted). As to the method:
Assay 13: Inhibition of IL-13 Stimulated pSTAT6 in Normal Human Epidermal Keratinocytes
The potency of test compounds for inhibition of interleukin-13 (IL-13) stimulated STAT6 phosphorylation was measured in the normal human epidermal keratinocytes (ATCC) using AlphaLisa. Phosphorylated STAT6 was measured via the AlphaLISA SureFire Ultra pSTAT6 (Tyr641) kit (PerkinElmer).
Primary epidermal keratinocytes were cultured in a 37° C., 5% CO2 humidified incubator in dermal cell basal medium (ATCC) supplemented with keratinocyte growth kit (ATCC) and 1× Pen/Strep (Life Technologies). […]
After cytokine stimulation, cells were lysed with 5 ul of 5× AlphaLisa Lysis Buffer (PerkinElmer) containing 1× PhosStop and Complete tablets (Roche). […] Phosphorylated STAT6 was measured via the pSTAT6 AlphaLisa kit (PerkinElmer). […] Luminescence was measured with excitation at 689 nm and emission at […] using an EnVision plate reader (PerkinElmer) under green filtered <100 lux light.
Luminescence signals were recorded and utilized to calculate the percent inhibition values based on DMSO and controls. For dose-response analysis, percent inhibition data were plotted vs. compound concentrations, and IC50 values were determined from a 4-parameter robust fit model with the Prism software.

A further series is described as follows: in vitro. Format: in vitro ADME. The following applies: human, microsomes. The protocol: Assay 17: Human Liver Microsome Assay The objective of this assay was to assess the metabolic stability of test compounds in an in vitro human liver sub-fraction. Human liver microsomes obtained from Bioreclamation-IVT (Baltimore, Md.) were thawed on ice and diluted into 0.1M potassium phosphate buffer pH 7.4 to yield final incubation protein concentrations of 0.1 mg/mL. […] Incubations were conducted at 37° C. temperature and test aliquots were taken at time points 0, 5, 8, 15, 30 and 45 minutes. […] The resulting samples were injected onto an LC-MS/MS system for analysis. For each incubation, the peak area of the analytes in each t0 aliquot was set to 100% and the peak areas from subsequent time point aliquots were converted to percentage of parent compound remaining relative to t0. The percentage of parent compound remaining was converted to natural log scale and plotted versus time in minutes. A linear regression analysis was performed for the initial decline of the parent disappearance profile and a formula for the best-fit line determined. The slope of the resultant line was normalized to protein concentration in mg/mL protein or number of cells/mL and CLint was calculated as follows for liver microsomes: CLint (μL·min^−1·mg^−1)=(Slope×1000)/[protein,mg/mL]

The target of another series is T1, JAK2 (Homo sapiens, UniProt O60674).
T1 construct: GST; purchased Life Technologies
Briefly: Biochemical JAK kinase assay (LanthaScreen), JAK2. To be noted: converted from pIC50 by Cheng-Prusoff; ATP at Km 3 μM; read-out: JAK 2 (pKi) (converted). As to the method: Assay 1: Biochemical JAK and Tyk2 Kinase Assays A panel of four LanthaScreen JAK biochemical assays (JAK1, 2, 3 and Tyk2) were carried in a common kinase reaction buffer (50 mM HEPES, pH 7.5, 0.01% Brij-35, 10 mM MgCl2, and 1 mM EGTA). Recombinant GST-tagged JAK enzymes and a GFP-tagged STAT1 peptide substrate were obtained from Life Technologies. Serially or discretely diluted compounds were pre-incubated with each of the four JAK enzymes and the substrate in white 384-well microplates (Corning) at ambient temperature for 1 h. ATP was subsequently added to initiate the kinase reactions in 10 μL total volume, with 1% DMSO. […] The plates were allowed to incubate at ambient temperature for 1 h before being read on the EnVision reader (Perkin Elmer). Emission ratio signals (520 nm/495 nm) were recorded and utilized to calculate the percent inhibition values based on DMSO and background controls. For dose-response analysis, percent inhibition data were plotted vs. compound concentrations, and IC50 values were determined from a 4-parameter robust fit model with the Prism software (GraphPad Software). Results were expressed as pIC50 (negative logarithm of IC50) and subsequently converted to pKi (negative logarithm of dissociation constant, Ki) using the Cheng-Prusoff equation.

T1 sequence (O60674 whole entry): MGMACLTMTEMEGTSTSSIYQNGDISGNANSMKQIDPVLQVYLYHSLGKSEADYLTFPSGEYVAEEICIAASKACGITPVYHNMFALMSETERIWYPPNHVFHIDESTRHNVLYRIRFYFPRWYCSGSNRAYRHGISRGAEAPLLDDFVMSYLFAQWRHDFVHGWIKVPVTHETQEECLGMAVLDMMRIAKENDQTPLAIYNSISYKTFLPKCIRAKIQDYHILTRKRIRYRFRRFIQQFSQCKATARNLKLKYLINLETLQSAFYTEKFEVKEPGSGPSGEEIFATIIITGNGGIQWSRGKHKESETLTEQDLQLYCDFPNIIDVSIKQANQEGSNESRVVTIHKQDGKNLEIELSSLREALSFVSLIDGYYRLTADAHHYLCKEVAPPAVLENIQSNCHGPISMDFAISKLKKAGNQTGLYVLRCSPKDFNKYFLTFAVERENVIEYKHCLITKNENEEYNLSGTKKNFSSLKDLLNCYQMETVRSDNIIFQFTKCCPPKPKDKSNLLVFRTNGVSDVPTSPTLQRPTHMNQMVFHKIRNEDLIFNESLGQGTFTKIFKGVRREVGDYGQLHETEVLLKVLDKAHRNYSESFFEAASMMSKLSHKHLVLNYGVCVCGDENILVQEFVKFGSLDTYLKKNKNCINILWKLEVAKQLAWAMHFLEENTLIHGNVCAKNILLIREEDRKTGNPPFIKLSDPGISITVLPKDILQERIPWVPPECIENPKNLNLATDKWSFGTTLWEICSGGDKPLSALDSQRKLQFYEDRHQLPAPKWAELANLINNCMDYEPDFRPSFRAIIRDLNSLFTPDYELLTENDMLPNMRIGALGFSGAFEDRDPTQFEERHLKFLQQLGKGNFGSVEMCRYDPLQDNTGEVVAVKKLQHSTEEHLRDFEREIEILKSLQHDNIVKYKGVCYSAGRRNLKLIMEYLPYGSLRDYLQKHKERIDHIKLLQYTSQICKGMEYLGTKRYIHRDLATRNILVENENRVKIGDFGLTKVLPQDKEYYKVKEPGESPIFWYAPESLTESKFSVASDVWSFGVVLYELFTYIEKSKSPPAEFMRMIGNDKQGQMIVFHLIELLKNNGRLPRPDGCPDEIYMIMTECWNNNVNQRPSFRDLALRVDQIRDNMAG

Take `CCS(=O)(=O)N1[C@@H]2CCC[C@H]1C[C@H](N(C)c1nc(CO)c(F)c(Nc3cc(C)[nH]n3)n1)C2` [Compound (I), (2-(((1R,3s,5S)-9-(ethylsulfonyl)-9-azabicyclo[3.3.1]nonan-3-yl)(methyl)amino)-5-fluoro-6-((5-methyl-1H-pyrazol-3-yl)amino)pyrimidin-4-yl)methanol]: in series [1], the “plasma exposure (below the limit of quantitation)” value is less than 0.001 µg/mL. For the same compound, in the series on CXCL10 gene expression, the “PD-% Inhibition (mean ± SD) CXCL10” value worked out at 90.1%. For the same compound, the IC50 in series [2] is 5.01 nM. The microsomal CLint at 0.1 μM in the series “in vitro” (pH 7.4, HLM Clint) was 136 µL/min/mg; in the series “in vitro” (pH 7.4, clearance class in human microsomes), greater than 50 µL/min/mg. Moreover, at JAK2, the Ki was 0.0631 nM.
